Results taken from ChEMBL document CHEMBL1143868, “Synthesis, SAR, and Evaluation of 4-[2,4-Difluoro-5-(cyclopropylcarbamoyl)phenylamino]pyrrolo[2,1-f][1,2,4]triazine-based VEGFR-2 kinase inhibitors” (Bioorg Med Chem Lett, 2008).

Experiments:
Liver microsomes = assay: Metabolic stability in human liver microsomes per mg of protein at 3 uM after 10 mins; type: ADME, Microsome
Liver = assay: Metabolic stability in mouse liver microsomes per mg of protein at 3 uM after 10 mins; type: ADME, Microsome
[1] = Cmax in mouse at 50 mg/kg, po; type: ADME, organism-based; set-up: dose 50 mg/kg, route oral; conditions: in vivo
[2] = Tmax in mouse at 50 mg/kg, po; type: ADME, organism-based; set-up: dose 50 mg/kg, route oral; conditions: in vivo
[3] = AUC (0 to 4 hrs) in mouse at 50 mg/kg, po; type: ADME, organism-based; set-up: time < 4 hr, dose 50 mg/kg, route oral; conditions: plasma

SMILES | Stability (Liver microsomes) [nmol/min/mg] | Stability (Liver) [nmol/min/mg] | Cmax [1] [µM] | Tmax [2] [h] | AUC(0-t) at 4 h [3] [µM·h]
CC(C)c1c(-c2nnc(OC3CCNCC3)o2)cn2ncnc(Nc3cc(C(=O)NC4CC4)c(F)cc3F)c12 | 0.023 | 0.007 | 15 | 4 | 53.2
CC(C)c1c(-c2nnc(NCCCCN)o2)cn2ncnc(Nc3cc(C(=O)NC4CC4)c(F)cc3F)c12 | 0.012 | 0 | 0.1 | 0.5 | 0.2
CC(C)c1c(-c2nnc(NCCCN(C)C)o2)cn2ncnc(Nc3cc(C(=O)NC4CC4)c(F)cc3F)c12 | 0.098 | 0.02 | 8 | 1 | 21.7
